Literature values in patent US20100012891A1, “Tooth Whitening Compositions and Methods” (priority 2008, published 2010).

Conditions: at six months, 16%-18% carbamide peroxide (Brunton et al., 2004)

For NC(N)=O.OO [carbamide peroxide], the patients with rebound is given as 40%.
